Several values for one entry are separate records, joined by “and”; a condition that tells them apart may be missing. Equal values may be shown once.
Tested on: 855422-203-R-J1-PDC complex spheroid viability
Test: Anticancer human tumor 855422-203-R-J1-PDC patient-derived bladder carcinoma cell line growth inhibition
Conditions: for viability, T/C: stronger effect = lower value; active = viability on the fitted dose curve at most 10% of control; inactive = the rest
In short: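 Drug combinations with the LSD1 inhibitor iadademstat tested on tumor cells co-cultured as spheroids with endothelial cells and mesenchymal stem cells. Concentrations descended in half-log increments from clinical Cmax or 10 microM.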

[1] = curve of first compound, second compound 0.1 µM
[2] = curve of first compound, second compound 0.316 µM
[3] = curve of first compound, second compound 1 µM
[4] = curve of first compound, second compound 3.16 µM
[5] = curve of first compound, second compound 10 µM
[6] = second compound 0.1 µM, first compound 0.000949 µM
[7] = second compound 0.1 µM, first compound 0.003 µM
[8] = second compound 0.1 µM, first compound 0.00949 µM
[9] = second compound 0.1 µM, first compound 0.03 µM
[10] = second compound 0.1 µM, first compound 0.0949 µM
[11] = second compound 0.1 µM, first compound 0.3 µM
[12] = second compound 0.316 µM, first compound 0.000949 µM
[13] = second compound 0.316 µM, first compound 0.003 µM
[14] = second compound 0.316 µM, first compound 0.00949 µM
[15] = second compound 0.316 µM, first compound 0.03 µM
[16] = second compound 0.316 µM, first compound 0.0949 µM
[17] = second compound 0.316 µM, first compound 0.3 µM
[18] = second compound 1 µM, first compound 0.000949 µM
[19] = second compound 1 µM, first compound 0.003 µM
[20] = second compound 1 µM, first compound 0.00949 µM
[21] = second compound 1 µM, first compound 0.03 µM
[22] = second compound 1 µM, first compound 0.0949 µM
[23] = second compound 1 µM, first compound 0.3 µM
[24] = second compound 3.16 µM, first compound 0.000949 µM
[25] = second compound 3.16 µM, first compound 0.003 µM
[26] = second compound 3.16 µM, first compound 0.00949 µM
[27] = second compound 3.16 µM, first compound 0.03 µM
[28] = second compound 3.16 µM, first compound 0.0949 µM
[29] = second compound 3.16 µM, first compound 0.3 µM
[30] = second compound 10 µM, first compound 0.000949 µM
[31] = second compound 10 µM, first compound 0.003 µM
[32] = second compound 10 µM, first compound 0.00949 µM
[33] = second compound 10 µM, first compound 0.03 µM
[34] = second compound 10 µM, first compound 0.0949 µM
[35] = second compound 10 µM, first compound 0.3 µM
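Also: drug exposure lasted 7 days starting on day 3 after seeding.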
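For viability, T/C in this document: luminescence viability as percent of DMSO vehicle wells = 100%.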

Nc1ncn(C2CC(O)C(CO)S2)c(=O)n1 (centres undefined) + NC1CCC(NC2CC2c2ccccc2)CC1
inactive: viability, T/C [6] 99.6% | viability, T/C [7] 93.5% | viability, T/C [8] 85.8% | viability, T/C [9] 90.1% | viability, T/C [10] 93.8% | viability, T/C [11] 73% | viability, T/C [12] 95.5% | viability, T/C [13] 89.3% | viability, T/C [14] 89% | viability, T/C [15] 89.5% | viability, T/C [16] 97.8% | viability, T/C [17] 80.1% | viability, T/C [18] 87.1% | viability, T/C [19] 87.9% | viability, T/C [20] 86.4% | viability, T/C [21] 89.2% | viability, T/C [22] 86.6% | viability, T/C [23] 78.1% | viability, T/C [24] 92.4% | viability, T/C [25] 91.7% | viability, T/C [26] 84% | viability, T/C [27] 92.8% | viability, T/C [28] 87% | viability, T/C [29] 73.4% | viability, T/C [30] 89.5% | viability, T/C [31] 81.7% | viability, T/C [32] 82.9% | viability, T/C [33] 82.7% | viability, T/C [34] 82.1% | viability, T/C [35] 74.5%
> 300 nM: IC50 [1] | IC50 [2] | IC50 [3] | IC50 [4] | IC50 [5]

CC1COCCN1c1cc(-c2ccnn2C)c2ccnc(-c3ccn[nH]3)c2n1 (centres undefined)
inactive: viability, T/C (compound 0.00316 µM) 98.3% and 96.7% | viability, T/C (compound 0.01 µM) 90.6% and 99.5% | viability, T/C (compound 0.0316 µM) 90.2% and 105% | viability, T/C (compound 0.1 µM) 46% and 48.9% | viability, T/C (compound 0.316 µM) 32.3% and 26% | viability, T/C (compound 1 µM) 25.3% and 22.9%
91 nM and 97.7 nM: IC50 (curve of compound)

O=C(C=Cn1cnc(-c2cc(C(F)(F)F)cc(C(F)(F)F)c2)n1)NNc1cnccn1
37.5 nM and 29.4 nM: IC50 (curve of compound)
inactive: viability, T/C (compound 0.00316 µM) 124% and 114% | viability, T/C (compound 0.01 µM) 125% and 86.4% | viability, T/C (compound 0.0316 µM) 52.5% and 44.8% | viability, T/C (compound 0.1 µM) 43.6% and 32.7% | viability, T/C (compound 0.316 µM) 38.7% and 27.1% | viability, T/C (compound 1 µM) 25% and 18.6%

CCc1c2c(nc3ccc(O)cc13)-c1cc3c(c(=O)n1C2)COC(=O)[C@]3(O)CC + NC1CCC(NC2CC2c2ccccc2)CC1
inactive: viability, T/C [6] 21.1% | viability, T/C [7] 16% | viability, T/C [8] 11.9% | viability, T/C [12] 22.6% | viability, T/C [13] 19.5% | viability, T/C [14] 12.3% | viability, T/C [18] 23.6% | viability, T/C [19] 17.3% | viability, T/C [20] 13.2% | viability, T/C [24] 22.1% | viability, T/C [25] 15.5% | viability, T/C [26] 11.4% | viability, T/C [30] 20.7% | viability, T/C [31] 12.2%
< 0.949 nM: IC50 [1] | IC50 [2] | IC50 [3] | IC50 [4] | IC50 [5]
active: viability, T/C [9] 9.64% | viability, T/C [10] 6.14% | viability, T/C [11] 2.74% | viability, T/C [15] 9.27% | viability, T/C [16] 5.32% | viability, T/C [17] 5.13% | viability, T/C [21] 8.94% | viability, T/C [22] 7.12% | viability, T/C [23] 2.09% | viability, T/C [27] 9.39% | viability, T/C [28] 4.78% | viability, T/C [29] 2.98% | viability, T/C [32] 8.28% | viability, T/C [33] 8.25% | viability, T/C [34] 4.8% | viability, T/C [35] 1.43%

From PubChem BioAssay AID1918943 (Molecular Pharmacology Branch, DTP, NCI, 2023)
